The values that follow come from patent US20230102488A1, “COMPOUNDS AND THEIR USE FOR THE TREATMENT OF ALPHA1-ANTITRYPSIN DEFICIENCY” (Z Factor Limited, priority 2019, published 2023).

The target in one assay is T1, Z A1AT (Homo sapiens, UniProt P01009, E366K).
T1 construct: expressed in transfected cells; host or cells: HEK-Z cells (human embryonic kidney cell line)
T1 sequence (P01009 25-418 E366K): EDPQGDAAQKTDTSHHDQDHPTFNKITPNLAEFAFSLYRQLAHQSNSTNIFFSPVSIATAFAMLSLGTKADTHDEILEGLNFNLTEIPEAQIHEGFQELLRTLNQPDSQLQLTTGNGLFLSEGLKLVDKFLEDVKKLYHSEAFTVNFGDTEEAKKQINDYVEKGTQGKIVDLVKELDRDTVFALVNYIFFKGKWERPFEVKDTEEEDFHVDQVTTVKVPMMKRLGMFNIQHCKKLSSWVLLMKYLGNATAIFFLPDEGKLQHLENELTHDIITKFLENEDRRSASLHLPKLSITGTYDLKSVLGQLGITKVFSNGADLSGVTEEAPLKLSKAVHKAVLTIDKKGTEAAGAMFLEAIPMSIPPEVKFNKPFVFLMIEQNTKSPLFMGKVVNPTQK
Kind of assay: A1AT cell secretion assay using HEK-Z cells (A1AT ELISA of supernatants). The class given is cell-based. The settings on record: 48 h, read-out: Median A1AT % increase over vehicle at 300 nM. As to the method:
HEK-Z cells, a human embryonic kidney cell line stably transfected with the human Z A1AT gene, were plated into 96 well plates (3.0×10^5 cells/ml with 200 μl of media/well) overnight at 37° C. in a humidified atmosphere containing 5% CO2. Following incubation cells were washed with 200 μl serum-free media three times and media was replaced with treatments in quadruplicate using serum free media containing either vehicle, 10 μM suberanilohydroxamic acid (SAHA) or a compound of the invention ([…]) for 48 h in a 37° C. incubator in a final volume of 200 μl. At the end of the incubation step the supernatants were removed from the wells, centrifuged at 1000×g at 4° C. for 10 min and were assayed for human A1AT levels by ELISA (Human Serpin A1/α1-antitrypsin duo set ELISA, R& D Systems, DY1268) per manufacturer's instructions.
Briefly, a 96 well plate was coated with human A1AT capture antibody overnight at room temperature (1:180 dilution from stock, 100 μl final volume/well). The capture antibody was then removed and wells washed three times with 300 μl wash buffer (0.05% Tween 20 in PBS) and then 200 μl reagent diluent ([…]) was incubated in each well for 1 h at room temperature. Diluted samples, standards (125, 250, 500, 1000, 2000, 4000 and 8000 pg/ml A1AT) or blanks were then added to each well in duplicate and the plates were covered with a plate sealer and left at room temperature for 2 h. At the end of the sample incubation step, samples were removed and all wells washed as previously and 100 μl detection antibody (1:180 dilution from stock) was added to each well and incubated for a further 2 h at room temperature. Following incubation with detection antibody, supernatant was removed and wells were washed as previously and 100 μl streptavidin-HRP solution (1:200 dilution from stock) was added to each well for 20 min in the dark. After which, 50 μl stop solution (2M H2SO4) was added and optical density (OD) of each well was read at 450 nm with 570 nm blank subtracted from each well using a microplate reader. A 4 parameter logistic curve was constructed using GraphPad Prism 7 and A1AT concentrations were determined in each sample by interpolation from a standard curve and multiplying by the appropriate dilution factor.
In the case of `CNC(=O)c1ccc(Cn2cnc3ccccc3c2=O)cc1` [Example 5, N-Methyl-4-((4-oxoquinazolin-3(4H)-yl)methyl)benzamide], the activation at 0.3 µM was determined as 180%.
`CC(C)N(C)C(=O)c1ccc(Cn2cnc3ccccc3c2=O)cc1` [Example 15, N-isopropyl-N-methyl-4-((4-oxoquinazolin-3(4H)-yl)methyl)benzamide]: the activation at 0.3 µM is 190%.
In the case of `CN(Cc1ccccc1)C(=O)c1ccc(Cn2cnc3ccccc3c2=O)cc1` [Example 16, N-benzyl-N-methyl-4-((4-oxoquinazolin-3(4H)-yl)methyl)benzamide], the activation at 0.3 µM turned out to be 160%.
The same measure, in the same setting: the figure for `CN(CC(F)(F)F)C(=O)c1ccc(Cn2cnc3ccccc3c2=O)cc1` [Example 17, N-methyl-4-((4-oxoquinazolin-3(4H)-yl)methyl)-N-(2,2,2-trifluoroethyl)benzamide] is 170%.

Still in this assay, the particulars now being: HEK-Z cells, 300 nM, 48 h, secreted human A1AT in supernatant by ELISA; read-out: Median A1AT % increase over vehicle at 300 nM.
With `CCN(C)C(=O)c1ccc(Cn2cnccc2=O)cc1` [Example 1, N-Ethyl-N-methyl-4-((6-oxopyrimidin-1(6H)-yl)methyl)benzamide], the activation at 0.3 µM came out at 330%.
As for `O=C(c1ccc(Cn2cnccc2=O)cc1)N1CCCC1` [Example 2, 3-(4-(Pyrrolidine-1-carbonyl)benzyl)pyrimidin-4(3H)-one], the activation at 0.3 µM worked out at 350%.
`O=C(c1ccc(Cn2cnccc2=O)cc1)N1CCOCC1` [Example 3, 3-(4-(Morpholine-4-carbonyl)benzyl)pyrimidin-4(3H)-one]: the activation at 0.3 µM was 280%.
With `CN1CCN(C(=O)c2ccc(Cn3cnccc3=O)cc2)CC1` [Example 4, 3-(4-(4-Methylpiperazine-1-carbonyl)benzyl)pyrimidin-4(3H)-one], the activation at 0.3 µM was 390%.
Take `CNC(=O)c1ccc(Cn2cnc3ccc(Cl)cc3c2=O)cc1` [Example 6, 4-((6-chloro-4-oxoquinazolin-3(4H)-yl)methyl)-N-methylbenzamide]: the activation at 0.3 µM came out at 200%.
Consider `CC(C)N(C)C(=O)c1ccc(Cn2cnccc2=O)cc1` [Example 7, N-isopropyl-N-methyl-4-((6-oxopyrimidin-1(6H)-yl)methyl)benzamide], for which the activation at 0.3 µM is 160%.
`CN(Cc1ccccc1)C(=O)c1ccc(Cn2cnccc2=O)cc1` [Example 8, N-benzyl-N-methyl-4-((6-oxopyrimidin-1(6H)-yl)methyl)benzamide]: the activation at 0.3 µM came out at 150%.
As for `CN(CC(F)(F)F)C(=O)c1ccc(Cn2cnccc2=O)cc1` [Example 9, N-methyl-4-((6-oxopyrimidin-1(6H)-yl)methyl)-N-(2,2,2-trifluoroethyl)benzamide], the activation at 0.3 µM came out at 170%.
The same measure, in the same setting: the figure for `NC(=O)c1ccc(Cn2cnccc2=O)cc1` [Example 10, 4-((6-oxopyrimidin-1(6H)-yl)methyl)benzamide] is 260%; for `CCN(CC)C(=O)c1ccc(Cn2cnccc2=O)cc1` [Example 11, N,N-diethyl-4-((6-oxopyrimidin-1(6H)-yl)methyl)benzamide] it is 230%.
For `CC(C)NC(=O)c1ccc(Cn2cnccc2=O)cc1` [Example 12, N-isopropyl-4-((6-oxopyrimidin-1(6H)-yl)methyl)benzamide], the activation at 0.3 µM amounted to 210%.
Consider `O=C(NCc1ccc(F)cc1)c1ccc(Cn2cnccc2=O)cc1` [Example 13, N-(4-fluorobenzyl)-4-((6-oxopyrimidin-1(6H)-yl)methyl)benzamide], for which the activation at 0.3 µM is 190%.
For the compound `O=C(NCC(F)(F)F)c1ccc(Cn2cnccc2=O)cc1` [Example 14, 4-((6-oxopyrimidin-1(6H)-yl)methyl)-N-(2,2,2-trifluoroethyl)benzamide], the activation at 0.3 µM is 180%.
On the same count and under the same terms, the result for `Cc1ncn(Cc2ccc(C(=O)N(C)C)cc2)c(=O)c1C` [Example 18, 4-((4,5-dimethyl-6-oxopyrimidin-1(6H)-yl)methyl)-N,N-dimethylbenzamide] reads 170%.
